The values below come from patent US6903132B2, “Non-peptide GnRH agents, pharmaceutical compositions and methods for their use” (Agouron Pharmaceuticals, Inc., priority 2002, dated 2005).

The data set can be described thus: In vitro metabolism: disappearance of parent compound in liver microsomes (female rat). In kind it is in vitro ADME. To be noted: 5 uM compound, 0.5 mg/ml microsomal protein, 2 mM NADPH, 30 minutes at 37° C. Here is the method: Human, rat, dog, and monkey liver microsomes are isolated by differential centrifugation. Specimens of human liver were obtained from the International Institute for the Advancement of Medicine (Scranton, Pa.). The disappearance of the parent compound is studied in a mixture containing 5 uM compound, 0.5 mg/ml microsomal protein, and 2 mM NADPH in 50 mM K Phosphate buffer, pH 7.4. Samples are incubated for 30 minutes at 37° C. The reaction is terminated by the addition of acetonitrile and compounds analyzed by LC-MS as described above.
(Microsomes from liver hold many membrane-bound enzymes, among them those of drug oxidation.)

In the case of `COc1cc2c(cc1Cc1ccc(C(=O)NNc3cc(C)c4c(C)nn(C)c4n3)o1)C(C)(C)CCC2(C)C` [Example C2, 5-[(3-Methoxy-5,5,8,8-tetramethyl-5,6,7,8-tetrahydro-2-naphthalenyl)methyl]-N′-(1,3,4-trimethyl-1H-pyrazolo[3,4-b]pyridin-6-yl)-2-furohydrazide], the “Fem. t % rem. 30′” value was found to be 18%.
